Read-outs that look alike come from different tables or passages of the source.
Tests used:
[1] = system: ACHN; experiment: NCI DTP antiproliferative screen, renal cancer ACHN; format: cell-based, human
Protocol: (§1) The norindenoisoquinolines are examined for antiproliferative activity in the National Cancer Institute's Developmental Therapeutics Program (DTP) (Boyd & Paull, Some Practical Considerations and Applications of the National Cancer Institute In Vitro Anticancer Drug Discovery Screen. Drug Development Res. 1995, 34, 91-109; Shoemaker, The NCI60 Human Tumour Cell Line Anticancer Drug screen. Nat. Rev. Cancer 2006, 6, 813-823). Each compound is evaluated against approximately 55 human cell lines representing leukemia, melanoma, and cancers of the lung, colon, brain, breast, ovary, prostate and kidney. After an initial one-dose assay at a single high dose (10^−5 M), only compounds that satisfy the pre-determined threshold inhibition criteria are selected for further 5-dose assay.

[2] = system: all human cancer cell lines successfully tested; experiment: NCI DTP antiproliferative screen, mean graph midpoint; format: cell-based; settings: average GI50 of all cell lines tested; values outside 10^-8 to 10^-4 M taken as the limits
Protocol: as §1

[3] = system: IGROVI; experiment: NCI DTP antiproliferative screen, ovarian cancer IGROVI; format: cell-based, human
Protocol: as §1

[4] = system: SF-539; experiment: NCI DTP antiproliferative screen, CNS SF-539; format: cell-based, human
Protocol: as §1

[5] = system: CCRF-CEM; experiment: NCI DTP antiproliferative screen, leukemia CCRF-CEM; format: cell-based, human; settings: read-out: GI50 against leukemia CCRF-CEM
Protocol: as §1

[6] = system: SF-295; experiment: NCI DTP antiproliferative screen, CNS cancer SF-295; format: cell-based, human
Protocol: as §1

[7] = system: HCT-116; experiment: NCI DTP antiproliferative screen, colon HCT-116; format: cell-based, human
Protocol: as §1

[8] = system: HCC-2998; experiment: NCI DTP antiproliferative screen, colon cancer HCC-2998; format: cell-based, human
Protocol: as §1

[9] = system: SR; experiment: NCI DTP antiproliferative screen, leukemia SR; format: cell-based, human
Protocol: as §1

[10] = system: DU-145; experiment: NCI DTP antiproliferative screen, prostate DU-145; format: cell-based, human
Protocol: as §1

[11] = system: OVCAR-3; experiment: NCI DTP antiproliferative screen, ovarian OVCAR-3; format: cell-based, human
Protocol: as §1

[12] = system: UACC-62; experiment: NCI DTP antiproliferative screen, melanoma UACC-62; format: cell-based, human
Protocol: as §1

[13] = system: MCF7; experiment: NCI DTP antiproliferative screen, breast cancer MCF7; format: cell-based, human
Protocol: as §1

[14] = system: SN12C; experiment: NCI DTP antiproliferative screen, renal SN12C; format: cell-based, human
Protocol: as §1

[15] = system: NCI-H460; experiment: NCI DTP antiproliferative screen, non-small cell lung cancer NCI-H460; format: cell-based, human
Protocol: as §1

[16] = system: U251; experiment: NCI DTP antiproliferative screen, CNS cancer U251; format: cell-based, human
Protocol: as §1

[17] = system: HOP-62; experiment: NCI DTP antiproliferative screen, lung HOP-62; format: cell-based, human
Protocol: as §1

[18] = system: MOLT-4; experiment: NCI DTP antiproliferative screen, leukemia MOLT-4; format: cell-based, human; settings: read-out: GI50 against leukemia MOLT-4
Protocol: as §1

[19] = system: CAKI-1; experiment: NCI DTP antiproliferative screen, renal cancer CAKI-1; format: cell-based, human
Protocol: as §1

[20] = system: COLO 205; experiment: NCI DTP antiproliferative screen, colon cancer COLO 205; format: cell-based, human
Protocol: as §1

[21] = system: RPMI-8226; experiment: NCI DTP antiproliferative screen, leukemia RPMI-8226; format: cell-based, human; settings: read-out: GI50 against leukemia RPMI-8226
Protocol: as §1

`COc1cc2cnc3c(c2cc1OC)Cc1c-3cc2c(c1Cn1ccnc1)OCO2` [Compound 14c, 2,3-Dimethoxy-8,9-methylenedioxy-10-(1H-imidazol-yl)methyl-11H-indeno[1,2-c]isoquinoline] showed a GI50 ([1]; 1st run) of 270 nM, a GI50 ([1]; 2nd run) of 300 nM and a GI50 ([1]; Mean of runs) of 280 nM. For the same compound, the “MGM (mean graph midpoint for growth inhibition)” value [2] was 0.52 µM, the GI50 ([3]; 1st run, read-out: GI50 Ovarian Cancer IGROVI) was 33 nM and the GI50 ([3]; 2nd run, read-out: GI50 Ovarian Cancer IGROVI) was 210 nM. The GI50 ([3]; Mean of runs, read-out: GI50 Ovarian Cancer IGROVI) was 120 nM, the GI50 ([3]; read-out: GI50 against human ovarian cancer cell IGROVI) was 121 nM and the GI50 [4] was 280 nM. It also gave a GI50 [5] of 37 nM, a GI50 ([6]; 1st run) of 160 nM and a GI50 ([6]; 2nd run) of 130 nM. For the same compound, the GI50 ([6]; Mean of runs) was 150 nM, the GI50 [7] was 160 nM and the GI50 ([8]; 1st run) was 110 nM. For the same compound, the GI50 ([8]; 2nd run) was 2100 nM, the GI50 ([8]; Mean of runs) was 1100 nM and the GI50 ([9]; 1st run, read-out: GI50 Leukemia SR) was 12 nM. The GI50 ([9]; Mean of runs, read-out: GI50 Leukemia SR) was 12 nM, the GI50 ([9]; read-out: GI50 against leukemia SR) was 12 nM and the GI50 [10] was 260 nM. For the same compound, the GI50 ([10]; 1st run, read-out: GI50 Prostate Cancer DU-145) was 260 nM, the GI50 ([10]; 2nd run, read-out: GI50 Prostate Cancer DU-145) was 410 nM and the GI50 ([10]; Mean of runs, read-out: GI50 Prostate Cancer DU-145) was 330 nM. The GI50 [11] was 210 nM, the GI50 [12] was 210 nM and the GI50 ([12]; 1st run, read-out: GI50 Melanoma UACC-62) was 210 nM. The GI50 ([12]; 2nd run, read-out: GI50 Melanoma UACC-62) was 180 nM, the GI50 ([12]; Mean of runs, read-out: GI50 Melanoma UACC-62) was 200 nM and the GI50 ([13]; 1st run, read-out: GI50 Breast Cancer MCF7) was 90 nM. It also gave a GI50 ([13]; 2nd run, read-out: GI50 Breast Cancer MCF7) of 89 nM, a GI50 ([13]; Mean of runs, read-out: GI50 Breast Cancer MCF7) of 90 nM and a GI50 ([13]; read-out: GI50 against human breast cancer cell MCF-7) of 90 nM. The GI50 [14] was 600 nM, the GI50 ([15]; 1st run) was 160 nM and the GI50 ([15]; 2nd run) was 110 nM. For the same compound, the GI50 ([15]; Mean of runs) was 130 nM, the GI50 ([16]; 1st run) was 150 nM and the GI50 ([16]; 2nd run) was 170 nM. It also gave a GI50 ([16]; Mean of runs) of 160 nM, a GI50 [17] of 350 nM and a GI50 [18] of 60 nM. For the same compound, the GI50 ([19]; 1st run) was 170 nM, the GI50 ([19]; 2nd run) was 400 nM and the GI50 ([19]; Mean of runs) was 290 nM. For the same compound, the GI50 ([20]; 1st run) was 760 nM, the GI50 ([20]; 2nd run) was 280 nM and the GI50 ([20]; Mean of runs) was 510 nM. It also gave a GI50 [21] of 41 nM.
